Results on 24 compounds are retold here after patent US9206130B2, “Quinoline derivatives as AXL kinase inhibitors” (Max-Planck-Gesellschaft zur Förderung der Wissenschaften …, priority 2008, dated 2015).

Data set [1] has as its target T1, wild type AXL (wtAXL) receptor tyrosine kinase (Homo sapiens, UniProt P30530).
T1 construct: WtAXL cDNA was cloned into vector pLXSN(ESK) and transfected into Phoenix E packaging cells; expressed in transfected cells; host or cells: NIH3T3 N7 mouse fibroblasts, retrovirally infected (clone 22)
T1 sequence (P30530 26-894): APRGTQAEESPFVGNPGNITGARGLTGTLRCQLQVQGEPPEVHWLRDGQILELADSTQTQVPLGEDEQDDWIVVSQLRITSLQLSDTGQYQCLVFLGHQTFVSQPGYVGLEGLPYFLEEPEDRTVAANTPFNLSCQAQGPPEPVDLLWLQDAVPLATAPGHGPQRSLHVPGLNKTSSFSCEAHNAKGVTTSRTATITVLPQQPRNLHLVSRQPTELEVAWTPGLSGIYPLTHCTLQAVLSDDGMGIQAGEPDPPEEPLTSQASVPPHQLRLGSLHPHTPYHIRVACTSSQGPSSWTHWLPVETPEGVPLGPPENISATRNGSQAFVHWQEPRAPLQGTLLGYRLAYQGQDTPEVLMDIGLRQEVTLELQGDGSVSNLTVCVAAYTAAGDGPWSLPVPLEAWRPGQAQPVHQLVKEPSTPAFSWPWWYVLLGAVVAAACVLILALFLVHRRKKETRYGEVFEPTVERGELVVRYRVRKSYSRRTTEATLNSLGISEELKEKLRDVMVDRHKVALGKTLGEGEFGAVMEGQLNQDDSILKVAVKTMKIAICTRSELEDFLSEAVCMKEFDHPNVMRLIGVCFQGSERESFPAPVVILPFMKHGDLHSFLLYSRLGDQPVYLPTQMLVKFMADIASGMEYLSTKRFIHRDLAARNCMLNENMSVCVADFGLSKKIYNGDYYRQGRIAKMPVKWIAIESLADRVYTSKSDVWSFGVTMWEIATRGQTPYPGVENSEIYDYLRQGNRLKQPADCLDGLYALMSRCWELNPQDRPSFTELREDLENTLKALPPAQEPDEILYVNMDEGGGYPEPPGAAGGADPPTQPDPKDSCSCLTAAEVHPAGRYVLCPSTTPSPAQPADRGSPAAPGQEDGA
Briefly: NIH-3T3-AXL cellular tyrosine kinase assay (inhibition of AXL phosphorylation). Format: cell-based. The following applies: AXL phosphorylation in NIH-3T3-AXL (clone 22) cells, serum-depleted, 2 h with compound, immunoprecipitation / anti-phosphotyrosine blot. In a few lines:
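NIH3T3 clones stably expressing human wtAXL (puromycin-selected) were exposed to serially diluted compounds for 2 h. AXL was immunoprecipitated from lysates with anti-AXL antibody, and phosphorylation detected by anti-phosphotyrosine (4G10) western blot with ECL.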

The term IC50 denotes the concentration that inhibits the measured activity by half. As a reminder, the melting point is the temperature, or range, at which the solid turns liquid.

For the compound `COc1cc2c(Oc3ccc(NS(=O)(=O)c4ccc(Cl)cc4F)cc3F)ccnc2cc1OCCCN1CCCC(C)C1` (stereo not drawn) [Example D24, 4-Chloro-2-fluoro-N-(3-fluoro-4-{6-methoxy-7-[3-(3-methyl-piperidin-1-yl)-propoxy]-quinolin-4-yloxy}-phenyl)-benzenesulfonamide], the melting point lay within 136 to 138 °C. Besides, the IC50 in data set [1] is 0.181 µM.

Turning to `COc1cc2nccc(Oc3ccc(NS(=O)(=O)c4ccc(-c5ccccc5)s4)c(F)c3)c2cc1OC` [Example A36, 5-Phenyl-thiophene-2-sulfonic acid [4-(6,7-dimethoxy-quinolin-4-yloxy)-2-fluoro-phenyl]-amide], the melting point lay within 186 to 188 °C. In data set [1], the IC50 was 2.8 µM.

Consider `COc1cc2nccc(Oc3ccc(NS(=O)(=O)c4cc(Cl)c(C)cc4OC)cc3)c2cc1OC` [Example A69, 5-Chloro-N-[4-(6,7-dimethoxy-quinolin-4-yloxy)-phenyl]-2-methoxy-4-methyl-benzenesulfonamide], for which the melting point fell in the range of 236 to 238 °C. Moreover, in data set [1], the half-maximal inhibitory concentration (IC50) is greater than 10 µM.

Regarding `COC(=O)c1sccc1S(=O)(=O)Nc1ccc(Oc2cc(C)nc3ccc(F)cc23)cc1` [Example B17, 3-[4-(6-Fluoro-2-methyl-quinolin-4-yloxy)-phenylsulfamoyl]-thiophene-2-carboxylic acid methyl ester], the melting point was 160 to 161 °C. The IC50 in data set [1] is greater than 10 µM.

In the case of `Cc1cc(Oc2ccc(NS(=O)(=O)c3cc(Cl)cc(Cl)c3)cc2)c2cc(F)ccc2n1` [Example B10, 3,5-Dichloro-N-[4-(6-fluoro-2-methyl-quinolin-4-yloxy)-phenyl]-benzenesulfonamide], the melting point lay in the range of 238 to 240 °C. In addition, the IC50 in data set [1] is greater than 10 µM.

For the compound `Cc1cc(Oc2ccc(NS(=O)(=O)c3cccc(-c4ncccn4)c3)c(F)c2)c2cccc(C(F)(F)F)c2n1` [Example C16, N-[2-Fluoro-4-(2-methyl-8-trifluoromethyl-quinolin-4-yloxy)-phenyl]-3-pyrimidin-2-yl-benzenesulfonamide], the melting point lay within 219 to 220 °C. In data set [1], the IC50 was greater than 10 µM.

On to `COc1cc2nccc(Oc3ccc(NS(=O)(=O)c4ccc(-c5cnco5)s4)c(F)c3)c2cc1OC` [Example A37, 5-Oxazol-5-yl-thiophene-2-sulfonic acid [4-(6,7-dimethoxy-quinolin-4-yloxy)-2-fluoro-phenyl]-amide], for which the melting point is 206 to 208 °C. For the same compound, in data set [1], the IC50 is greater than 10 µM.

The compound `Cc1cc(Oc2ccc(NS(=O)(=O)c3ccccc3C(F)(F)F)c(F)c2)c2cccc(C(F)(F)F)c2n1` [Example C07, N-[2-Fluoro-4-(2-methyl-8-trifluoromethyl-quinolin-4-yloxy)-phenyl]-2-trifluoromethyl-benzenesulfonamid] registered a melting point of 183 to 185 °C. Also, the 50% inhibitory concentration (IC50) in data set [1] is greater than 10 µM.

`COc1cc2nccc(Oc3ccc(NS(=O)(=O)c4csc5ccccc45)cc3)c2cc1OC` [Example A84, Benzo[b]thiophene-3-sulfonic acid [4-(6,7-dimethoxy-quinolin-4-yloxy)-phenyl]-amide] gave a melting point of 267 to 270 °C. Further, the 50% inhibitory concentration (IC50) in data set [1] is greater than 3 µM.

Compound `COc1cc2nccc(Oc3ccc(NS(=O)(=O)Cc4ccccc4)c(F)c3)c2cc1OC` [Example A73, N-[4-(6,7-Dimethoxy-quinolin-4-yloxy)-2-fluoro-phenyl]-C-phenyl-methanesulfonamide] had a melting point of 204 to 205 °C. In addition, in data set [1], the IC50 is greater than 3 µM.

With `COc1cc2nccc(Oc3ccc(NS(=O)(=O)c4c(F)cccc4F)c(F)c3)c2cc1OC` [Example A14, N-[4-(6,7-Dimethoxy-quinolin-4-yloxy)-2-fluoro-phenyl]-2,6-difluoro-benzenesulfonamide], the melting point fell in the range of 223 to 225 °C. In addition, the IC50 in data set [1] is 1.4 µM.

Compound `COc1cc2nccc(Oc3ccc(NS(=O)(=O)c4ccc(-c5ccccc5)cc4)c(C)c3)c2cc1OC` [Example A92, Biphenyl-4-sulfonic acid [4-(6,7-dimethoxy-quinolin-4-yloxy)-2-methyl-phenyl]-amide] yielded a melting point of 228 to 230 °C. For the same compound, the IC50 in data set [1] is greater than 10 µM.

`COc1cc2nccc(Oc3ccc(NS(=O)(=O)c4cccc(-c5ccccc5)c4)cc3C)c2cc1OC` [Example A75, Biphenyl-3-sulfonic acid [4-(6,7-dimethoxy-quinolin-4-yloxy)-3-methyl-phenyl]-amide]: the melting point lay in the range of 178 to 180 °C. In addition, in data set [1], the IC50 was greater than 3 µM.

`COc1cc2c(Oc3ccc(NS(=O)(=O)c4ccccc4Br)cc3F)ccnc2cc1OCCCN1CCC(C)CC1` [Example D18, 2-Bromo-N-(3-fluoro-4-{6-methoxy-7-[3-(4-methyl-piperidin-1-yl)-propoxy]-quinolin-4-yloxy}-phenyl)-benzenesulfonamide] returned a melting point of 184 to 186 °C. In data set [1], the IC50 came to 0.151 µM.

In turn, `COc1cc2nccc(Oc3ccc(NS(=O)(=O)c4cccc(-c5ccccc5)c4)c(F)c3)c2cc1OC` [Example A34, Biphenyl-3-sulfonic acid [4-(6,7-dimethoxy-quinolin-4-yloxy)-2-fluoro-phenyl]-amide] displayed a melting point of 193 to 195 °C. In addition, the half-inhibitory concentration (IC50) in data set [1] turned out to be 0.43 µM.

`COc1ccc(S(=O)(=O)Nc2ccc(Oc3cc(C)nc4c(C(F)(F)F)cccc34)c(F)c2)cc1F` [Example C09, 3-Fluoro-N-[3-fluoro-4-(2-methyl-8-trifluoromethyl-quinolin-4-yloxy)-phenyl]-4-methoxy-benzenesulfonamide]: the melting point was 128 to 130 °C. In addition, in data set [1], the IC50 was greater than 10 µM.

In turn, `Cc1cc(Oc2ccc(NS(=O)(=O)c3cccc4ccccc34)c(F)c2)c2cccc(C(F)(F)F)c2n1` [Example C04, Naphthalene-1-sulfonic acid [2-fluoro-4-(2-methyl-8-trifluoromethyl-quinolin-4-yloxy)-phenyl]-amide] registered a melting point of 232 to 234 °C. Besides, the IC50 in data set [1] is greater than 10 µM.

`CCCCS(=O)(=O)Nc1ccc(Oc2ccnc3cc(OCCCN4CCCC(C)C4)c(OC)cc23)c(F)c1` (stereo not drawn) [Example D25, Butane-1-sulfonic acid (3-fluoro-4-{6-methoxy-7-[3-(3-methyl-piperidin-1-yl)-propoxy]-quinolin-4-yloxy}-phenyl)-amide] came in with a melting point of 104 to 106 °C. In addition, in data set [1], the IC50 was found to be 0.378 µM.

`COc1cc2nccc(Oc3ccc(NS(=O)(=O)c4ccccc4OC(F)(F)F)cc3OC)c2cc1OC` [Example A119, N-[4-(6,7-Dimethoxy-quinolin-4-yloxy)-3-methoxy-phenyl]-2-trifluoromethoxy-benzenesulfonamide]: the melting point was in the range of 211 to 212 °C. Also, in data set [1], the IC50 was greater than 3 µM.

In turn, `COc1cc2nccc(Oc3ccc(NS(=O)(=O)c4cccc(C)c4)c(F)c3)c2cc1OC` [Example A26, N-[4-(6,7-Dimethoxy-quinolin-4-yloxy)-2-fluoro-phenyl]-3-methyl-benzenesulfonamide] registered a melting point of 244 to 245 °C. The IC50 in data set [1] was determined as 4.73 µM.

Take `COc1cc2nccc(Oc3ccc(NS(=O)(=O)c4ccccc4Br)c(F)c3)c2cc1OC` [Example A55, 2-Bromo-N-[4-(6,7-dimethoxy-quinolin-4-yloxy)-2-fluoro-phenyl]-benzenesulfonamide]: the melting point was 225 to 227 °C. Further, the IC50 in data set [1] is greater than 1 µM.

Take `Cc1cc(Oc2ccc(NS(=O)(=O)c3ccc(Br)cc3C(F)(F)F)cc2)c2cc(F)ccc2n1` [Example B15, 4-Bromo-N-[4-(6-fluoro-2-methyl-quinolin-4-yloxy)-phenyl]-2-trifluoromethyl-benzenesulfonamide]: the melting point lay within 191 to 193 °C. In addition, the IC50 in data set [1] was greater than 10 µM.

Take `COc1cc2nccc(Oc3ccc(NS(=O)(=O)c4sc(NC(C)=O)cc4C)c(F)c3)c2cc1OC` [Example A7, N-{5-[4-(6,7-Dimethoxy-quinolin-4-yloxy)-2-fluoro-phenylsulfamoyl]-4-methyl-thiophen-2-yl}-acetamide]: the melting point lay in the range of 133 to 135 °C. Besides, in data set [1], the concentration for half-maximal inhibition (IC50) was greater than 10 µM.

In turn, `COC(=O)c1sccc1S(=O)(=O)Nc1ccc(Oc2ccnc3cc(OC)c(OC)cc23)cc1F` [Example A9, 3-[4-(6,7-Dimethoxy-quinolin-4-yloxy)-2-fluoro-phenylsulfamoyl]-thiophene-2-carboxylic acid methyl ester] returned a melting point of 189 to 190 °C. In data set [1], the IC50 stood at 3.7 µM.
